Results taken from ChEMBL document CHEMBL3244107, “Synthesis and structure-activity relationships of bestatin analogues, inhibitors of aminopeptidase B” (J Med Chem, 1977).
Converted amounts (≈) assume the structure as drawn.

Columns and labels:
[1] = Retardation factor, Rf value of the compound using BuOH-AcOH-H20 at 4:1:1 ratio by ninhydrin; format: physicochemical
[2] = Inhibition of leucine aminopeptidase B (unknown origin) using 0.2 mM L-leucine-beta-naphthylamide; parameters: species or system Homo sapiens
[3] = biological target: T1, Aminopeptidase B (Rattus norvegicus, UniProt O09175); assay: Inhibition of rat liver aminopeptidase B using 0.2 mM […] by colorimetry
T1 sequence (O09175 whole entry): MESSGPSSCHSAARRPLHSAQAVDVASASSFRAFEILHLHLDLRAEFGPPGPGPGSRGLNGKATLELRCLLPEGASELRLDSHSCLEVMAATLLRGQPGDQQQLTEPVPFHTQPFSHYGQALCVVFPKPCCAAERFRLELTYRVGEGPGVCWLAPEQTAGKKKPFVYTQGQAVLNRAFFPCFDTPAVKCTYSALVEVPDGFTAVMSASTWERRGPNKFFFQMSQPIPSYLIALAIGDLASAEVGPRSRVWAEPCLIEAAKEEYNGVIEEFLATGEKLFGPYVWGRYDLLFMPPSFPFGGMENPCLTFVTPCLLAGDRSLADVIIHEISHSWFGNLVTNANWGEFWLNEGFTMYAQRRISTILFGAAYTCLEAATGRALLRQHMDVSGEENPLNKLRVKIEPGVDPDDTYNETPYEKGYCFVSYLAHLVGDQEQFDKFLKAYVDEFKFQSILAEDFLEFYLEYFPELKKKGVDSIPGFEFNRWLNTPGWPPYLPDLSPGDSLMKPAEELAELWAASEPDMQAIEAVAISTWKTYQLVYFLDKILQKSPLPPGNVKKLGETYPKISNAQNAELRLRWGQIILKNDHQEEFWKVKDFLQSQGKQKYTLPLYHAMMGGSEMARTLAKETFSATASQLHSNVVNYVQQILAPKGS

| SMILES | Rf [1] | IC50 [2] [µg/mL] | IC50 [3] [µM] |
| --- | --- | --- | --- |
| CCCC[C@H](NC(=O)[C@@H](O)[C@H](N)Cc1ccccc1)C(=O)O | 0.47 | – | – |
| CC(C)C[C@H](NC(=O)[C@@H](O)[C@H](N)CC(C)C)C(=O)O | 0.49 | – | – |
| CC(C)C[C@@H](NC(=O)[C@@H](O)[C@@H](N)Cc1ccccc1)C(=O)O | 0.52 | 2.7 (≈ 8.76 µM) | 0.162 |
| CC(C)C[C@@H](NC(=O)[C@H](O)[C@H](N)Cc1ccccc1)C(=O)O | 0.37 | > 250 | > 811 |
| CC(C)C[C@H](NC(=O)[C@H](O)[C@@H](N)Cc1ccccc1)C(=O)O | 0.49 | > 250 | > 811 |
| CC(C)C[C@@H](NC(=O)[C@H](O)[C@@H](N)Cc1ccccc1)C(=O)O | 0.48 | > 250 | 438 |
| N[C@H](Cc1ccccc1)[C@H](O)C(=O)NCC(=O)O | 0.26 | – | – |
| N[C@H](Cc1ccccc1)[C@H](O)C(=O)NCCCC(=O)O | 0.35 | – | 392 |
| N[C@H](Cc1ccccc1)[C@H](O)C(=O)NCCCCCC(=O)O | 0.48 | – | 357 |
| N[C@H](Cc1ccccc1)[C@H](O)C(=O)N1CCC[C@H]1C(=O)O | 0.25 | – | > 855 |
| NCCCC[C@H](NC(=O)[C@@H](O)[C@H](N)Cc1ccccc1)C(=O)O | 0.06 | – | > 773 |
| N[C@H](Cc1ccccc1)[C@H](O)C(=O)N[C@@H](CCC(=O)O)C(=O)O | 0.27 | – | – |
| NC(=O)CC[C@H](NC(=O)[C@@H](O)[C@H](N)Cc1ccccc1)C(=O)O | 0.17 | – | – |
| N[C@H](Cc1ccccc1)[C@H](O)C(=O)N[C@@H](CO)C(=O)O | 0.2 | – | 2.48 |
| CSCC[C@H](NC(=O)[C@@H](O)[C@H](N)Cc1ccccc1)C(=O)O | 0.37 | – | – |
| C[C@H](NC(=O)[C@@H](O)[C@H](N)Cc1ccccc1)C(=O)O | 0.21 | – | 1.01 |
| CC(C)[C@H](NC(=O)[C@@H](O)[C@H](N)Cc1ccccc1)C(=O)O | 0.42 | – | – |
| CCC[C@H](NC(=O)[C@@H](O)[C@H](N)Cc1ccccc1)C(=O)O | 0.41 | – | – |
| CC[C@H](C)[C@H](NC(=O)[C@@H](O)[C@H](N)Cc1ccccc1)C(=O)O | 0.48 | – | 0.13 |
| N[C@H](Cc1ccccc1)[C@H](O)C(=O)N[C@@H](Cc1ccccc1)C(=O)O | 0.44 | – | – |
| CC(C)CCNC(=O)[C@@H](O)[C@H](N)Cc1ccccc1.Cl | 0.65 | – | 565 |
| CC(C)C[C@H](NC(=O)[C@@H](O)[C@H](N)Cc1ccccc1)C(=O)NCC(=O)O | 0.34 | – | 93 |

| SMILES | Rf [1] | IC50 [2] [µg/mL] | IC50 [3] [µM] |
| --- | --- | --- | --- |
| CC(C)C[C@H](NC(=O)[C@@H](O)CN)C(=O)O | 0.13 | – | 641 |
| CC(C)C[C@H](NC(=O)[C@H](O)CN)C(=O)O | 0.13 | – | > 1150 |
| CC(C)C[C@H](NC(=O)[C@@H](O)[C@H](N)CC1CCCCC1)C(=O)O | 0.47 | – | 3.5 |
| CC(C)C[C@H](NC(=O)[C@@H](O)[C@H](N)Cc1ccc([N+](=O)[O-])cc1)C(=O)O | 0.58 | – | – |
| CC(C)C[C@H](NC(=O)[C@@H](O)[C@H](N)Cc1ccc(N)cc1)C(=O)O | 0.25 | – | – |
| CC(C)C[C@H](NC(=O)[C@H](O)[C@@H](C)N)C(=O)O | 0.23 | – | – |
| CC(C)C[C@H](NC(=O)[C@@H](O)[C@@H](C)N)C(=O)O | 0.27 | – | – |
| CC(C)C[C@H](NC(=O)[C@H](O)[C@H](N)CC(C)C)C(=O)O | 0.43 | – | – |
| CC(C)C[C@H](NC(=O)[C@H](O)[C@H](N)c1ccccc1)C(=O)O | 0.38 | – | – |
| CC(C)C[C@H](NC(=O)[C@@H](O)[C@H](N)c1ccccc1)C(=O)O | 0.41 | – | – |
| CC(C)C[C@H](NC(=O)[C@H](O)[C@H](N)Cc1ccc(Cl)cc1)C(=O)O | 0.42 | – | – |
| CC(C)C[C@H](NC(=O)[C@@H](O)[C@H](N)Cc1ccc(Cl)cc1)C(=O)O | 0.52 | – | – |
| Cc1ccc(C[C@@H](N)[C@@H](O)C(=O)N[C@@H](CC(C)C)C(=O)O)cc1 | 0.53 | – | – |
| Cc1ccc(C[C@@H](N)[C@H](O)C(=O)N[C@@H](CC(C)C)C(=O)O)cc1 | 0.58 | – | – |
| CC(C)C[C@@H](NC(=O)[C@@H](O)[C@H](N)Cc1ccccc1)C(=O)O | 0.49 | 3.4 (≈ 11 µM) | – |
| N[C@H](Cc1ccccc1)[C@H](O)C(=O)NCCC(=O)O | 0.34 | – | 141 |
| CC(C)C[C@H](NC(=O)[C@@H](O)[C@@H](N)Cc1ccccc1)C(=O)O | 0.37 | 0.07 (≈ 0.227 µM) | – |
| CC(C)C[C@H](NC(=O)[C@H](O)[C@H](N)Cc1ccccc1)C(=O)O | 0.52 | 7.5 (≈ 24.3 µM) | 324 |
| CCCCCCC(NC(=O)[C@@H](O)[C@H](N)Cc1ccccc1)C(=O)O (mixture of isomers) | 0.58 | – | – |
| CC(C)C[C@H](NC(=O)C(O)C(N)Cc1ccccc1Cl)C(=O)O (mixture of isomers) | 0.46 | – | – |
| CC(C)C[C@H](NC(=O)[C@@H](O)[C@H](N)Cc1ccccc1)C(=O)O [UBENIMEX] | 0.48 | 0.01 (≈ 0.0324 µM) | 0.162 |
